Reference: patent US20210251963A1, “UREA DERIVATIVES FOR USE IN THE TREATMENT OF SUBJECTS WITH ELEVATED EXPRESSION AND/OR ACTIVITY OF SRPK1” (Scandion Oncology A/S, priority 2018, published 2021)

Columns and labels:
Assay in all cases: Premier Screen kinase activity screening (33P ATP filter binding)
Assay type in all cases: biochemical
p38b MAPK = p38b MAPK (Homo sapiens, UniProt Q15759); details: 10 μM SCO-101, mean of assay duplicates, read-out: Kinase activity (percentage of DMSO control)
From the text: (§1) The kinase activity screening was done at MRC in Dundee. The screen was a so-called “Premier Screen” with 140 kinases. More specific information can be found here: http://www.kinase-screen.mrc.ac.uk/services/premier-screen
(§2) The method is based on a radioactive filter binding assay using 33P ATP (Hastie, et al 2006. Nat Protoc. 2006; 1(2):968-71; Bain, et al 2007. Biochem J. 2007 Dec. 15; 408(3):297-315). This method is sensitive, accurate and provides a direct measure of kinase enzyme activity. A concentration of 10 μM SCO-101 was used.
(§3) In the table below, the data is portrayed as the mean percentage activity of assay duplicates and a standard deviation. These percentage activities were calculated in comparison to DMSO controls. 10 μM SCO-101 reduced the activity of SRPK1 to 6% of the DMSO control.

MNK1 = target: T1, MNK1 (Homo sapiens, UniProt Q9BUB5); details: 10 μM SCO-101, mean of assay duplicates, read-out: Kinase activity (percentage of DMSO control)
T1 construct: MRC in Dundee (screening service)
From the text: as §1, §2, §3

TLK1 = TLK1 (Homo sapiens, UniProt Q9UKI8); details: 10 μM SCO-101, mean of assay duplicates, read-out: Kinase activity (percentage of DMSO control)
From the text: as §1, §2, §3

JNK3 = target: T2, JNK3 (Homo sapiens, UniProt P53779); details: 10 μM SCO-101, mean of assay duplicates, read-out: Kinase activity (percentage of DMSO control)
T2 construct: purchased MRC Dundee, Premier Screen (contract screening service)
From the text: as §1, §2, §3

PAK4 = target: T3, PAK4 (Homo sapiens, UniProt O96013); details: 10 μM SCO-101, mean of assay duplicates, read-out: Kinase activity (percentage of DMSO control)
T3 construct: purchased MRC in Dundee (Premier Screen service)
From the text: as §1, §2, §3

CHK2 = CHK2 (Homo sapiens, UniProt O96017); details: 10 μM SCO-101, mean of assay duplicates, read-out: Kinase activity (percentage of DMSO control)
Chain of CHK2 (O96017 whole entry, species assumed): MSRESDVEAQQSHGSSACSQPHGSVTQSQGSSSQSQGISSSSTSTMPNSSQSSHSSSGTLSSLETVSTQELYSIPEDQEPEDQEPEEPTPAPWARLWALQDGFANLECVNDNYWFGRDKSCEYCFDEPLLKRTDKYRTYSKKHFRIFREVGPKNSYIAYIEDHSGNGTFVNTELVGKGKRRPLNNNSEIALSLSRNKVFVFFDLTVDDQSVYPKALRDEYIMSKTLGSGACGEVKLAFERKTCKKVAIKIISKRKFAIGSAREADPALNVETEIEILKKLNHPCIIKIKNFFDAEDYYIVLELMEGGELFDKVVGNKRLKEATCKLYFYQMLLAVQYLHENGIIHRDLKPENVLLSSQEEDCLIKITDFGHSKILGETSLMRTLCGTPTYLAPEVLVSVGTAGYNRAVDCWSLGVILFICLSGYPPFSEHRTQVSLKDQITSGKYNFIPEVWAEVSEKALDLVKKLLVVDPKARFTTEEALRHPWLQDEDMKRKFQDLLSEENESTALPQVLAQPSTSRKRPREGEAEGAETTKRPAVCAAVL
From the text: as §1, §2, §3

MPSK1 = MPSK1 (Homo sapiens, UniProt O75716); details: 10 μM SCO-101, mean of assay duplicates, read-out: Kinase activity (percentage of DMSO control)
Chain of MPSK1 (O75716 whole entry, species assumed): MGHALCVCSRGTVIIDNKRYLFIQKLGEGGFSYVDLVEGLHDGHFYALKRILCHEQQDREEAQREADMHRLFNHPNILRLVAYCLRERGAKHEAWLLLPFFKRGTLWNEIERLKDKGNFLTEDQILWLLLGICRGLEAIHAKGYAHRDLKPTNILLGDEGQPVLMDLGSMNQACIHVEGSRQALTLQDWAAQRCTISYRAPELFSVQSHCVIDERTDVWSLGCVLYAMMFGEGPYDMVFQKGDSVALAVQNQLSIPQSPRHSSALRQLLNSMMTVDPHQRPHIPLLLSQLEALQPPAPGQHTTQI
From the text: as §1, §2, §3

SmMLCK = target: T4, SmMLCK (Homo sapiens, UniProt Q15746); details: 10 μM SCO-101, mean of assay duplicates, read-out: Kinase activity (percentage of DMSO control)
T4 construct: purchased MRC in Dundee (Premier Screen service)
From the text: as §1, §2, §3

HER4 = target: T5, HER4 (Homo sapiens, UniProt Q15303); details: 10 μM SCO-101, mean of assay duplicates, read-out: Kinase activity (percentage of DMSO control)
T5 construct: MRC Dundee (screening service)
From the text: as §1, §2, §3

TAO1 = details: 10 μM SCO-101, mean of assay duplicates
From the text: as §1, §2, §3

PKCa = PKCa (Homo sapiens, UniProt P17252); details: 10 μM SCO-101, mean of assay duplicates, read-out: Kinase activity (percentage of DMSO control)
From the text: as §1, §2, §3

CSK = target: T6, CSK (Homo sapiens, UniProt P41240); details: 10 μM SCO-101, mean of assay duplicates, read-out: Kinase activity (percentage of DMSO control)
T6 construct: purchased MRC Dundee, Premier Screen (contract screening service)
From the text: as §1, §2, §3

TTK = target: T7, TTK (Homo sapiens, UniProt P33981); details: 10 μM SCO-101, mean of assay duplicates, read-out: Kinase activity (percentage of DMSO control)
T7 construct: MRC in Dundee (screening service)
From the text: as §1, §2, §3

MLK3 = target: T8, MLK3 (Homo sapiens, UniProt Q16584); details: 10 μM SCO-101, mean of assay duplicates, read-out: Kinase activity (percentage of DMSO control)
T8 construct: purchased MRC Dundee, Premier Screen (contract screening service)
From the text: as §1, §2, §3

GCK = target: T9, GCK (Homo sapiens, UniProt Q12851); details: 10 μM SCO-101, mean of assay duplicates, read-out: Kinase activity (percentage of DMSO control)
T9 construct: MRC in Dundee (screening service)
From the text: as §1, §2, §3

PKBa = target: T10, PKBa (Homo sapiens, UniProt P31749); details: 10 μM SCO-101, mean of assay duplicates, read-out: Kinase activity (percentage of DMSO control)
T10 construct: purchased MRC in Dundee (Premier Screen service)
From the text: as §1, §2, §3

DDR2 = target: T11, DDR2 (Homo sapiens, UniProt Q16832); details: 10 μM SCO-101, mean of assay duplicates, read-out: Kinase activity (percentage of DMSO control)
T11 construct: purchased MRC in Dundee (Premier Screen service)
From the text: as §1, §2, §3

MARK1 = target: T12, MARK1 (Homo sapiens, UniProt Q9P0L2); details: 10 μM SCO-101, mean of assay duplicates, read-out: Kinase activity (percentage of DMSO control)
T12 construct: purchased MRC in Dundee (Premier Screen service)
T12 sequence (Q9P0L2 whole entry, species assumed): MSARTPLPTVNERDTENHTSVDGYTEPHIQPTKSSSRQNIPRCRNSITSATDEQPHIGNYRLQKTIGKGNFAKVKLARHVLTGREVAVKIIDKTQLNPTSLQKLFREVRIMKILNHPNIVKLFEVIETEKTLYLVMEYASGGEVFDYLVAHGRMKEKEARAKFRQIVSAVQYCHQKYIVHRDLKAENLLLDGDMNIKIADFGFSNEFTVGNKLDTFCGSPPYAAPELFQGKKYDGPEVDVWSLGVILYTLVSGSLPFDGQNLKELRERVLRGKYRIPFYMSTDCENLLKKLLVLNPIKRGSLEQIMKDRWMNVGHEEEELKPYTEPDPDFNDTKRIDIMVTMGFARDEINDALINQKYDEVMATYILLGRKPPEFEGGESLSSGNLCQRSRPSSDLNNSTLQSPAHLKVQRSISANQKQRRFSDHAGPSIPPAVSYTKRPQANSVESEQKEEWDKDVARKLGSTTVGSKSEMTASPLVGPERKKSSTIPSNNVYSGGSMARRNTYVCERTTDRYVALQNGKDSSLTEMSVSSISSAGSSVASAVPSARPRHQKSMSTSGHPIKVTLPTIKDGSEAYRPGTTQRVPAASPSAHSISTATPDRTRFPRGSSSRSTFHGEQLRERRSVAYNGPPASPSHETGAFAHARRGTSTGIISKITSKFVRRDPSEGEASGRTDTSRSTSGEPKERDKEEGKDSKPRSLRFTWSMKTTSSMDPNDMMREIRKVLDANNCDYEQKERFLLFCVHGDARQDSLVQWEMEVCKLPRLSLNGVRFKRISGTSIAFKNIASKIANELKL
From the text: as §1, §2, §3

CAMKKb = target: T13, CAMKKb (Homo sapiens, UniProt Q96RR4); details: 10 μM SCO-101, mean of assay duplicates, read-out: Kinase activity (percentage of DMSO control)
T13 construct: MRC in Dundee (screening service)
T13 sequence (Q96RR4 whole entry, species assumed): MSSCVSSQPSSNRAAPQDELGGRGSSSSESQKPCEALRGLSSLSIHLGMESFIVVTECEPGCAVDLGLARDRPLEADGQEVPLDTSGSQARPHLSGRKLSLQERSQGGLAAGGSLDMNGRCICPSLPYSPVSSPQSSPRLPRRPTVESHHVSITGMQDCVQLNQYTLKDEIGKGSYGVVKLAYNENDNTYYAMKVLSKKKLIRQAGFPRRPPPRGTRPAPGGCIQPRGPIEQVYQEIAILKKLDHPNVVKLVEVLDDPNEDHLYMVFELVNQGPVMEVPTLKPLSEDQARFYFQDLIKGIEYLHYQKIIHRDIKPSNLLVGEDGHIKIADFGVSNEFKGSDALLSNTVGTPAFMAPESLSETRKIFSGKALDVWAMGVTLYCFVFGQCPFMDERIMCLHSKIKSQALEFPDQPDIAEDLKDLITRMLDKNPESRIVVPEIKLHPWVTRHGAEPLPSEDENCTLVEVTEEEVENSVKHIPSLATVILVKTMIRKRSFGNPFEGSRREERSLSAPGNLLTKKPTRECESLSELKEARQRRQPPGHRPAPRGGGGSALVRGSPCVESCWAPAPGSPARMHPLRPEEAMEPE
From the text: as §1, §2, §3

JNK1 = target: T14, JNK1 (Homo sapiens, UniProt P45983); details: 10 μM SCO-101, mean of assay duplicates, read-out: Kinase activity (percentage of DMSO control)
T14 construct: purchased MRC Dundee, Premier Screen (contract screening service)
From the text: as §1, §2, §3

STK33 = target: T15, STK33 (Homo sapiens, UniProt Q9BYT3); details: 10 μM SCO-101, mean of assay duplicates, read-out: Kinase activity (percentage of DMSO control)
T15 construct: MRC Dundee (screening service)
From the text: as §1, §2, §3

MNK2 = target: T16, MNK2 (Homo sapiens, UniProt Q9HBH9); details: 10 μM SCO-101, mean of assay duplicates, read-out: Kinase activity (percentage of DMSO control)
T16 construct: purchased MRC Dundee, Premier Screen (contract screening service)
T16 sequence (Q9HBH9 whole entry, species assumed): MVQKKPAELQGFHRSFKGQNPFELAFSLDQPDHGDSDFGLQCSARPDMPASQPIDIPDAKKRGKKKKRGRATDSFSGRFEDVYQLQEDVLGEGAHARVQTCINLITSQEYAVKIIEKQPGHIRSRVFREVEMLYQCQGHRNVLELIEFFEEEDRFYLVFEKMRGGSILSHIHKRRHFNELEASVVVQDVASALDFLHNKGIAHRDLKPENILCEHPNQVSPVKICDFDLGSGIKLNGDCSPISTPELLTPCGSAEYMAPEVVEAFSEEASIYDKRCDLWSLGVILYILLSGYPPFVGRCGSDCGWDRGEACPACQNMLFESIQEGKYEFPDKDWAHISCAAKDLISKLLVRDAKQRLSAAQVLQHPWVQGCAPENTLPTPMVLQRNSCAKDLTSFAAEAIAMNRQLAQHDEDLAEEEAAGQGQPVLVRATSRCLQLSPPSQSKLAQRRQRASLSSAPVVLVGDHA
From the text: as §1, §2, §3

ABL = target: T17, ABL (Homo sapiens, UniProt P00519); details: 10 μM SCO-101, mean of assay duplicates, read-out: Kinase activity (percentage of DMSO control)
T17 construct: MRC in Dundee (screening service)
From the text: as §1, §2, §3

MARK3 = target: T18, MARK3 (Homo sapiens, UniProt P27448); details: 10 μM SCO-101, mean of assay duplicates, read-out: Kinase activity (percentage of DMSO control)
T18 construct: MRC Dundee (screening service)
From the text: as §1, §2, §3

CK1γ2 = target: T19, CK1γ2 (Homo sapiens, UniProt P78368); details: 10 μM SCO-101, mean of assay duplicates, read-out: Kinase activity (percentage of DMSO control)
T19 construct: purchased MRC Dundee, Premier Screen (contract screening service)
T19 sequence (P78368 whole entry): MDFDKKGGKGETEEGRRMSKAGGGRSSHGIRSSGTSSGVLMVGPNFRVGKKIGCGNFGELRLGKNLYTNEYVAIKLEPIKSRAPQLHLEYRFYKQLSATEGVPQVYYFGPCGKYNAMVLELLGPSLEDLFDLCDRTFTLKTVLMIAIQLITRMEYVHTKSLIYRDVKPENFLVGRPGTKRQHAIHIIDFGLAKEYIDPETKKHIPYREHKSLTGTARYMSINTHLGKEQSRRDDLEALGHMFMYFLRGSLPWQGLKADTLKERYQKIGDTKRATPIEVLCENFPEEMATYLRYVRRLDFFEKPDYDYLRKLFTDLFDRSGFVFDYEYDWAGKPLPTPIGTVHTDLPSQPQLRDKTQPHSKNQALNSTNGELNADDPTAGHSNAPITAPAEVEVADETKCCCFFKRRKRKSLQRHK
From the text: as §1, §2, §3

MSK1 = target: T20, MSK1 (Homo sapiens, UniProt O75582); details: 10 μM SCO-101, mean of assay duplicates, read-out: Kinase activity (percentage of DMSO control)
T20 construct: MRC Dundee (screening service)
From the text: as §1, §2, §3

PHK = details: 10 μM SCO-101, mean of assay duplicates
From the text: as §1, §2, §3

PKCz = target: T21, PKCz (Homo sapiens, UniProt Q05513); details: 10 μM SCO-101, mean of assay duplicates, read-out: Kinase activity (percentage of DMSO control)
T21 construct: MRC Dundee (screening service)
T21 sequence (Q05513 whole entry): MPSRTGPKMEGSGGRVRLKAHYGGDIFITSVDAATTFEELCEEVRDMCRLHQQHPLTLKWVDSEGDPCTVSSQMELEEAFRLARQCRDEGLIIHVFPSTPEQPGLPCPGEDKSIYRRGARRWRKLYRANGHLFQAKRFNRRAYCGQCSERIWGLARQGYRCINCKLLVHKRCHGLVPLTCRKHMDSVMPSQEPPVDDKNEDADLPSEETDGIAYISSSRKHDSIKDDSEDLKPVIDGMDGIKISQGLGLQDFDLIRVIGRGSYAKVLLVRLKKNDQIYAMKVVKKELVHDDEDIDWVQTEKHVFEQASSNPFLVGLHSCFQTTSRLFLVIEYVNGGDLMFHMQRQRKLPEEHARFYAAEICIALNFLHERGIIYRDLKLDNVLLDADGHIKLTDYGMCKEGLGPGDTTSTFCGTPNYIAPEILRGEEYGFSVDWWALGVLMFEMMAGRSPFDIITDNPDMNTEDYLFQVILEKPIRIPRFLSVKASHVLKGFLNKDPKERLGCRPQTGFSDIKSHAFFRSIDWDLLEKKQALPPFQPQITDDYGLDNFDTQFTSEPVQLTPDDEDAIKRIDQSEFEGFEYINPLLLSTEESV
From the text: as §1, §2, §3

MAPKAP-K2 = target: T22, MAPKAP-K2 (Homo sapiens, UniProt P49137); details: 10 μM SCO-101, mean of assay duplicates, read-out: Kinase activity (percentage of DMSO control)
T22 construct: MRC Dundee (screening service)
T22 sequence (P49137 whole entry, species assumed): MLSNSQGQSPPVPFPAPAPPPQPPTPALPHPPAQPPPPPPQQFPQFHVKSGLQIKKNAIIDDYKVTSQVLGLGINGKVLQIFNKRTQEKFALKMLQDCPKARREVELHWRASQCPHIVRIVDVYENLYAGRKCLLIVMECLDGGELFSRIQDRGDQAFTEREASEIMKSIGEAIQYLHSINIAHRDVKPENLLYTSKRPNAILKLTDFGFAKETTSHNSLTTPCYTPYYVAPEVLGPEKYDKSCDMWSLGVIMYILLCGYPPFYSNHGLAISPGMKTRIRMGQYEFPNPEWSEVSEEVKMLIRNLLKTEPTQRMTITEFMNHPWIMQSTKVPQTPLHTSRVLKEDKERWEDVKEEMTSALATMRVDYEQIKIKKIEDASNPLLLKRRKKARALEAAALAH
From the text: as §1, §2, §3

OSR1 = target: T23, OSR1 (Homo sapiens, UniProt O95747); details: 10 μM SCO-101, mean of assay duplicates, read-out: Kinase activity (percentage of DMSO control)
T23 construct: MRC in Dundee (screening service)
T23 sequence (O95747 whole entry): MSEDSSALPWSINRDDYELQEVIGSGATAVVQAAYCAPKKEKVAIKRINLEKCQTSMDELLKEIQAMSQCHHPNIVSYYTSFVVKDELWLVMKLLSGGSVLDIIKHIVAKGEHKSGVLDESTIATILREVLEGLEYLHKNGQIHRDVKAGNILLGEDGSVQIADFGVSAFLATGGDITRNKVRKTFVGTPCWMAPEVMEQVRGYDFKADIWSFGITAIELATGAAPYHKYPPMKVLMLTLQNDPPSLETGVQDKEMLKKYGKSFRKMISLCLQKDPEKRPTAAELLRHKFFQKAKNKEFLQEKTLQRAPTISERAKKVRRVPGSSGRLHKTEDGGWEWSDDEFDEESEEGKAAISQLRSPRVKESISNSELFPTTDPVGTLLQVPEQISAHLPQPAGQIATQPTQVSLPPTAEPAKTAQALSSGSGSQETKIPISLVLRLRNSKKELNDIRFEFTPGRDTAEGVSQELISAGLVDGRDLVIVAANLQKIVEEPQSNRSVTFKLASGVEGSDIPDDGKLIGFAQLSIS
From the text: as §1, §2, §3

DYRK3 = target: T24, DYRK3 (Homo sapiens, UniProt O43781); details: 10 μM SCO-101, mean of assay duplicates, read-out: Kinase activity (percentage of DMSO control)
T24 construct: purchased MRC in Dundee (Premier Screen service)
From the text: as §1, §2, §3

EPH-B3 = EPH-B3 (Homo sapiens, UniProt P54753); details: 10 μM SCO-101, mean of assay duplicates, read-out: Kinase activity (percentage of DMSO control)
From the text: as §1, §2, §3

ERK5 = target: T25, ERK5 (Homo sapiens, UniProt Q13164); details: 10 μM SCO-101, mean of assay duplicates, read-out: Kinase activity (percentage of DMSO control)
T25 construct: MRC in Dundee (screening service)
From the text: as §1, §2, §3

PDGFRA = target: T26, PDGFRA (Homo sapiens, UniProt P16234); details: 10 μM SCO-101, mean of assay duplicates, read-out: Kinase activity (percentage of DMSO control)
T26 construct: purchased MRC in Dundee (Premier Screen service)
From the text: as §1, §2, §3

CHK1 = target: T27, CHK1 (Homo sapiens, UniProt O14757); details: 10 μM SCO-101, mean of assay duplicates, read-out: Kinase activity (percentage of DMSO control)
T27 construct: purchased MRC in Dundee (Premier Screen service)
From the text: as §1, §2, §3

TBK1 = target: T28, TBK1 (Homo sapiens, UniProt Q9UHD2); details: 10 μM SCO-101, mean of assay duplicates, read-out: Kinase activity (percentage of DMSO control)
T28 construct: purchased MRC in Dundee (Premier Screen service)
From the text: as §1, §2, §3

Chain of p38b MAPK (Q15759 whole entry): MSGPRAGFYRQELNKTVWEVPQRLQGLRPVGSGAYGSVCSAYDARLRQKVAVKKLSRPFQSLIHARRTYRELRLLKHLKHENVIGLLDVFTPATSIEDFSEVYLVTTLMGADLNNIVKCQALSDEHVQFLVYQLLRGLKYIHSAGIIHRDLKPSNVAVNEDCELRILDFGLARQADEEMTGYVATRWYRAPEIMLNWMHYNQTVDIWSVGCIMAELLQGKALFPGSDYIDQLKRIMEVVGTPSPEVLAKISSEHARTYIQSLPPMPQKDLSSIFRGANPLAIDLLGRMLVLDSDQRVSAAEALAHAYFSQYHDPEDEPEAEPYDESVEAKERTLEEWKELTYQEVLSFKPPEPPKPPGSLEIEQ

O=C(Nc1cc(C(F)(F)F)cc(C(F)(F)F)c1)Nc1ccc(Br)cc1-c1nnn[nH]1 [SCO-101]
remaining activity at 10 µM (p38b MAPK): 115% | remaining activity at 10 µM (MNK1): 91% | remaining activity at 10 µM (TLK1): 122% | remaining activity at 10 µM (JNK3): 112% | remaining activity at 10 µM (PAK4): 38% | remaining activity at 10 µM (CHK2): 114% | remaining activity at 10 µM (MPSK1): 115% | remaining activity at 10 µM (SmMLCK): 77% | remaining activity at 10 µM (HER4): 98% | Kinase activity (percentage of DMSO control) (TAO1): 116 percentage of DMSO control | remaining activity at 10 µM (PKCa): 116% | remaining activity at 10 µM (CSK): 106% | remaining activity at 10 µM (TTK): 88% | remaining activity at 10 µM (MLK3): 110% | remaining activity at 10 µM (GCK): 92% | remaining activity at 10 µM (PKBa): 126% | remaining activity at 10 µM (DDR2): 68% | remaining activity at 10 µM (MARK1): 74% | remaining activity at 10 µM (CAMKKb): 94% | remaining activity at 10 µM (JNK1): 105% | remaining activity at 10 µM (STK33): 100% | remaining activity at 10 µM (MNK2): 104% | remaining activity at 10 µM (ABL): 85% | remaining activity at 10 µM (MARK3): 99% | remaining activity at 10 µM (CK1γ2): 109% | remaining activity at 10 µM (MSK1): 101% | Kinase activity (percentage of DMSO control) (PHK): 88 percentage of DMSO control | remaining activity at 10 µM (PKCz): 101% | remaining activity at 10 µM (MAPKAP-K2): 100% | remaining activity at 10 µM (OSR1): 94% | remaining activity at 10 µM (DYRK3): 59% | remaining activity at 10 µM (EPH-B3): 114% | remaining activity at 10 µM (ERK5): 90% | remaining activity at 10 µM (PDGFRA): 62% | remaining activity at 10 µM (CHK1): 195% | remaining activity at 10 µM (TBK1): 126%
